Assay results reported in US12384852B2, “Genetically modified NK-92 cells having a safety switch” (ImmunityBio, Inc., priority 2015, dated 2025).

What was measured:
[1] = clinical studies; cited from earlier work
NK-92-TK-CD16-IL-2 cells = assay: Functionality of the TK suicide gene: ganciclovir treatment of mice carrying NK-92-TK-CD16-IL-2 cells; format: in vivo, SCID mice; conditions: ganciclovir 50 μg i.p. every other day, two or three doses; within 24 hours to 72 hours
Description: The mice in the first group are treated with two or three doses of ganciclovir (50 μg) intraperitoneally every other day. The mice in the second group are treated with placebo. […] Expansion of NK-92-TK-CD16-IL-2 cells continues to increase over time in mice treated with placebo.

Structure (SMILES)	tolerability [1]	change in NK-92-TK-CD16-IL-2 cells (NK-92-TK-CD16-IL-2 cells)
CC[C@H](C(=O)N1CCCC[C@H]1C(=O)O[C@H](CCc1ccc(OC)c(OC)c1)c1cccc(OCC(=O)NCCNC(=O)COc2cccc([C@@H](CCc3ccc(OC)c(OC)c3)OC(=O)[C@@H]3CCCCN3C(=O)[C@@H](CC)c3cc(OC)c(OC)c(OC)c3)c2)c1)c1cc(OC)c(OC)c(OC)c1 [AP1903]	well tolerated	
Nc1nc(O)c2ncn(COC(CO)CO)c2n1 [ganciclovir]		significant reduction
